Key:
[1] = Pharmacokinetic study in rats after oral administration of Semen Cuscutae extract (HPLC-MS/MS of plasma); format: in vivo, Sprague–Dawley rats; conditions: oral Semen Cuscutae extract 13 g/kg; for AUC(0-inf) / Cmax / AUC / Tmax / half-life: male, Sprague-Dawley; for AUC: read-out: AUC(0-tn); for Tmax / half-life: rat, plasma, po, 13 g/kg
Description: 20 μL of methanol, 20 μL of IS (liquiritin, 200 ng/mL) and 20 μL of formic acid were added to 100 μL of plasma sample and then vortex-mixed. The mixture was extracted with 800 μL of acetonitrile by vortexing for 3 min. After centrifugation at 14000 rpm for 10 min, the supernatant was transferred to a clean glass tube and dried with nitrogen. The residue was reconstituted in 100 μL of methanol and then centrifuged at 14000 rpm for 10 min. 5 μL of supernatant was injected into the LC–MS/MS system for analysis.
Six Sprague–Dawley rats (SPF, 200 ± 10 g, male) were purchased from HFK Laboratory Animal Technology Co., Ltd. The rats were housed in a standard laboratory condition (12 h dark-light cycle; temperature was 25°C ± 2°C and humidity was kept 50 ± 5%) and fed standard dry pellet diet and water for one week for acclimatization. Before the experiments, the rats were in fasting state for 12 h, with free access to water. The Semen Cuscutae extracts were dissolved in 0.5% carboxymethyl cellulose-sodium, prepared into suspension and gavage to the rats at a dose of 13 g/kg. Approximately 200 μL of rat blood samples was collected from the orbital venous plexus at 0, 0.03, 0.08, 0.17, 0.25, 0.5, 1, 2, 4, 6, 8, 10, 12, 24, 36, and 48 h after oral administration into 1.5 mL heparinized centrifuge tube. After centrifugation at 7000 rpm for 10 min immediately, the supernatant was collected into a new centrifuge tube and stored at −70°C until analysis.
Pharmacokinetic parameters (Cmax, t1/2, Tmax, AUC(0-tn), and AUC(0-∞)) were obtained using the software “Drug and Statistics 3.0” (DAS 3.0) (Medical College of Wannan, China).

[2] = Stability of analytes in rat plasma QC samples under processing and storage conditions; format: in vitro ADME; conditions: n = 6; for Measured concentration, room temperature for 4h / Measured concentration, three freeze-thaw / Measured concentration, −70°C for 21 days: rat plasma; for Measured concentration, autosampler for 12h: treated rat plasma sample
Description: The stability of the 13 analytes was evaluated by QC samples in different processing and storage conditions, including short-term stability (putting the analytes in ambient temperature for 4 h and storing analytes in autosampler for 12 h after treatment), long-term stability (storing the analytes at −70°C for 21 days) and subjecting analytes to three freeze-thaw cycles. All stability experiments were tested in six parallels with low, middle, and high concentrations.

[3] = rat plasma, n = 6, listed as astragalin
[4] = rat plasma, n = 6, listed as isoquercitrin

Molecule	Measured concentration, room temperature for 4h ([2]; spiked 2 ng/mL) [ng/mL]	Measured concentration, three freeze-thaw ([2]; spiked 2 ng/mL) [ng/mL]	Measured concentration, −70°C for 21 days ([2]; spiked 2 ng/mL) [ng/mL]	Measured concentration, room temperature for 4h ([2]; spiked 25 ng/mL) [ng/mL]	Measured concentration, three freeze-thaw ([2]; spiked 25 ng/mL) [ng/mL]	Measured concentration, −70°C for 21 days ([2]; spiked 25 ng/mL) [ng/mL]	Measured concentration, room temperature for 4h ([2]; spiked 250 ng/mL) [ng/mL]	Measured concentration, three freeze-thaw ([2]; spiked 250 ng/mL) [ng/mL]	Measured concentration, −70°C for 21 days ([2]; spiked 250 ng/mL) [ng/mL]	Measured concentration, autosampler for 12h ([2]; spiked 2 ng/mL) [ng/mL]	Measured concentration, autosampler for 12h ([2]; spiked 25 ng/mL) [ng/mL]	Measured concentration, autosampler for 12h ([2]; spiked 250 ng/mL) [ng/mL]	AUC(0-inf) ([1]; rat plasma, n = 6) [ng·h/mL]	Cmax ([1]; rat plasma, n = 6) [ng/mL]	AUC ([1]; rat plasma, n = 6) [ng·h/mL]	T max ([1]; rat plasma, n = 6) [h]	t 1/2 ([1]; rat plasma, n = 6) [h]	half-life ([1]; n = 6) [h]	other results
O=c1cc(-c2ccc(O)c(O)c2)oc2cc(O)cc(O)c12 [Luteolin]	2.2 ± 0.1	2.0 ± 0.1	2.0 ± 0.1	26.5 ± 0.5	26.8 ± 1.6	27.4 ± 0.9	256.7 ± 11.5	261.1 ± 8.2	257.6 ± 5.1	2.1 ± 0.1	25.6 ± 1.0	244.9 ± 6.3	–	–	–	–	–	–	plasma concentration after 15 minutes of intragastric administration ([1]; rat plasma, LLOQ 1 ng/mL): lower than the LLOQ
O=c1c(O[C@@H]2O[C@H](CO)[C@@H](O)[C@H](O)[C@H]2O)c(-c2ccc(O)cc2)oc2cc(O)cc(O)c12 [Astragalin]	2.1 ± 0.1	2.1 ± 0.1	2.0 ± 0.1	27.6 ± 1.2	27.2 ± 0.8	26.1 ± 1.2	248.1 ± 4.3	258.6 ± 8.5	251.5 ± 8.7	2.1 ± 0.1	27.3 ± 1.0	254.6 ± 4.6	441 ± 292	58.2 ± 28.5	370 ± 259	0.24 ± 0.09	0.45 ± 0.26	–	T max [1, 3]: less than 1 h; t 1/2 [1, 3]: less than 1.5 h
Isoquercitrin	1.8 ± 0.2	2.1 ± 0.1	1.9 ± 0.1	22.8 ± 1.4	26.2 ± 1.8	25.9 ± 1.8	247.2 ± 14.7	248.9 ± 5.1	263.6 ± 10.2	1.9 ± 0.1	24.0 ± 0.5	238.3 ± 7.2	–	–	–	0.21 ± 0.07	0.49 ± 0.05	–	AUC(0-tn) ([1]; rat plasma, n = 6): 838.79 ± 518.04 ng·h/mL; AUC(0-∞) ([1]; rat plasma, n = 6): 949.49 ± 594.15 ng·h/mL; C max ([1]; rat plasma, n = 6): 52.61 ± 7.55 ng/mL; T max [1, 4]: less than 1 h; t 1/2 [1, 4]: less than 1.5 h
O=C(O)/C=C/c1ccc(O)c(O)c1 [Caffeic acid]	2.1 ± 0.1	2.1 ± 0.1	2.0 ± 0.1	27.9 ± 1.0	27.0 ± 1.3	26.0 ± 0.6	272.5 ± 8.9	255.7 ± 3.9	250.2 ± 5.1	2.2 ± 0.1	28.1 ± 0.8	262.6 ± 7.4	652 ± 292	33.7 ± 8.43	613 ± 291	–	11.60 ± 0.92	> 7.5	Tmax ([1]; n = 6): 0.28 ± 0.04 h
COc1cc(-c2oc3cc(O)cc(O)c3c(=O)c2O[C@@H]2O[C@H](CO)[C@@H](O)[C@H](O)[C@H]2O)ccc1O [Isorhamnetin-3-O-glucoside]	2.0 ± 0.1	2.0 ± 0.1	2.1 ± 0.1	27.1 ± 1.3	27.1 ± 1.5	26.2 ± 0.6	259.9 ± 5.5	255.0 ± 5.7	249.5 ± 7.0	2.1 ± 0.1	26.9 ± 1.0	251.5 ± 5.4	257 ± 74.4	19.5 ± 9.8	172 ± 49.2	0.30 ± 0.01	1.23 ± 0.26	< 1.5	T max ([1]; rat plasma, n = 6, listed as isorhamnetin-3-O-glucoside): less than 1 h
O=C(/C=C/c1ccc(O)c(O)c1)O[C@@H]1C[C@](O)(C(=O)O)C[C@@H](O)[C@H]1O [Chlorogenic acid]	2.1 ± 0.1	2.1 ± 0.1	2.1 ± 0.1	27.7 ± 1.6	28.1 ± 1.0	26.6 ± 1.2	258.4 ± 15.7	268.6 ± 15.8	253.6 ± 7.7	2.1 ± 0.1	26.6 ± 1.6	253.1 ± 6.0	1000 ± 646	35.5 ± 7.3	995 ± 654	0.22 ± 0.06	1.02 ± 0.67	< 1.5	T max ([1]; rat plasma, n = 6, listed as chlorogenic acid): less than 1 h
C[C@@H]1O[C@@H](OC[C@H]2O[C@@H](Oc3c(-c4ccc(O)c(O)c4)oc4cc(O)cc(O)c4c3=O)[C@H](O)[C@@H](O)[C@@H]2O)[C@H](O)[C@H](O)[C@H]1O [Rutin]	–	–	–	–	–	–	–	–	–	–	–	–	4790 ± 2240	158 ± 84.1	4460 ± 2270	–	7.70 ± 0.90	> 7.5	Tmax ([1]; n = 6): 10 ± 0.03 h; C max ([1]; rat plasma, n = 6): higher than that of other components; Measured concentration, room temperature for 4h ([2]; spiked 4 ng/mL): 3.9 ± 0.2 ng/mL; Measured concentration, three freeze-thaw ([2]; spiked 4 ng/mL): 4.0 ± 0.1 ng/mL; Measured concentration, −70°C for 21 days ([2]; spiked 4 ng/mL): 4.0 ± 0.1 ng/mL; Measured concentration, room temperature for 4h ([2]; spiked 50 ng/mL): 56.3 ± 2.3 ng/mL; Measured concentration, three freeze-thaw ([2]; spiked 50 ng/mL): 57.7 ± 1.0 ng/mL; Measured concentration, −70°C for 21 days ([2]; spiked 50 ng/mL): 52.7 ± 3.9 ng/mL; Measured concentration, room temperature for 4h ([2]; spiked 500 ng/mL): 505.7 ± 13.0 ng/mL; Measured concentration, three freeze-thaw ([2]; spiked 500 ng/mL): 513.1 ± 7.4 ng/mL; Measured concentration, −70°C for 21 days ([2]; spiked 500 ng/mL): 494.4 ± 8.8 ng/mL; Measured concentration, autosampler for 12h ([2]; spiked 4 ng/mL): 4.0 ± 0.2 ng/mL; Measured concentration, autosampler for 12h ([2]; spiked 50 ng/mL): 49.8 ± 2.7 ng/mL; Measured concentration, autosampler for 12h ([2]; spiked 500 ng/mL): 489.3 ± 14.2 ng/mL

Source: article PMC6925736, “Development of a HPLC-MS/MS Method to Determine the 13 Elements of Semen Cuscutae and Application to a Pharmacokinetic Study in Rats” (Evidence-based Complementary and Alternative Medicine : eCAM, 2019)
